Experimental data from US12054744B2, “NK cells exhibiting an adaptive phenotype and methods for preparing and for using” (Regents of the University of Minnesota, priority 2015, dated 2024).

System: TIGIT
Assay: Flow cytometry of TIGIT and other receptors on NK cells
Assay type: cell-based, human
Settings: cultured overnight; IL-15 10 ng/mL alone, or additional anti-CD16 1 μg/mL
Method: FIG. 11A. Purified NK cells from healthy blood donors were cultured before staining in the absence or presence of IL-15 (10 ng/mL) alone or with the additional stimulation of IL-12 (10 ng/mL) and IL-18 (100 ng/mL) for 18 hours or with stimulation with anti-CD16 (1 μg/mL) for 6 hours. One of four independent experiments is shown. NK cells were cultured with autologous MDSCs or freshly isolated monocytes at a 2:1 ratio in presence of IL-15 (10 ng/mL) for 5 days. Cells were stimulated with anti-CD16 six hours prior to analysis. Representative histograms for DNAM-1 (FIG. 11B) and TIGIT expression (FIG. 11C) and aggregate data for TIGIT expression (n=8) are shown as mean fluorescence intensity (MFI)±SEM. Two-Way ANOVA was used for statistical analysis. FIG. 11D. NK cells before and after co-culture with monocytes or MDSC were analyzed for co-expression of DNAM-1 and TIGIT. Representative data is shown of 3 independent experiments and 7 replicates. […]
Purified NK cells or MDS PBMC (FIG. 17) cultured with monocytes or MDSCs for different time points and with different stimuli were resuspended in staining buffer (PBS containing 0.5% human AB serum) and stained with fluorochrome-conjugated antibodies (Table IV). […] All cells were acquired by LSRII and analyzed by FlowJo. […]

IL-15: cytokine in culture medium, low-dose 1 ng/mL or high-dose 10 ng/mL
TIGIT expression on purified NK cells: slighted upregulated
